# Entries after “also recorded” stand apart in the source; their conditions may differ.
# Legend:
# [1] = system: GM3; experiment: GM3 expression in HEKs (flow cytometry / immunofluorescence with anti-GM3 antibody); format: cell-based, human; conditions: for GM3 expression (in words): GCS inhibitor, M154 medium and glucose-supplemented medium
# Method: A. HEKs were treated for 96 h with 0-100 pM TNF-α in complete […] medium and GM3S expression determined by qPCR. B. GM3 was quantified by flow cytometry with anti-GM3 antibody after 0-100 pM TNF-α for 96 h. C, D. HEKs were treated with 12 mM supplemental glucose (C) or in […] medium alone (D) for 72 h and GM3 was detected with anti-GM3 antibody by immunofluorescence. […] Changes in GM3 expression by immunofluorescence with anti-GM3 antibody show efficacy of siRNA- and DNA-Au NPs with 60-72 h incubation. […] C. […] A, B=routine immunofluorescence; C, D and inset of D=confocal microscopy. Bar=14 μm.
# [2] = system: ceramides; experiment: Ceramide detection with anti-C2 Cer antibody (TLC immunostaining, ELISA) in HEKs; format: cell-based, human; conditions: TLC immunostaining and ELISA
# [3] = system: HEKs; experiment: HEK proliferation (WST assay); format: cell-based, human; conditions: with or without 12 mM glucose, up to 5 days
# Method: (§1) A. KO and WT mouse KCs, grown in CNT07 medium, were treated with and without 12 mM glucose (Glu) for 72 h, and then plated into 96-well plates. Proliferation was measured by WST assay (Clontech) in the continued presence or absence of Glu. B. Mouse KCs were treated as above, then plated at confluence into Col I-coated 24-well plates in the presence of mitomycin C. Two hours after plating, a scratch was made and migration monitored. Migration was decreased by Glu, but was faster in the KO cells treated with Glu than with vehicle. […] A. HEKs were treated as described in FIG. 7 for mouse KCs and proliferation was measured. […] B. HEKs were treated and scratch assays performed as in FIG. 7. […] C. HEKs were treated with Glu and/or C9, but starved during the last 18 h. Cells were plated on the top of Col I-coated Boyden inserts in supplement-free medium, while the lower level was filled with the same medium with and without insulin (5 μg/ml) or IGF-1 (100 ng/ml) (Haase et al. J Cell Sci 2003; 116:3227-38.; herein incorporated by reference in its entirety). After 18 h, HEKs on the bottom surface were stained and counted. […] D-G. After their incubation in Glu and/or C9, HEKs were plated onto Col I-coated glass dishes and, 2 h later, single cells were imaged every 2 mins over a 2 h period using a Biostation phase contrast microscope (Nikon). […]
# [4] = system: HEKs; experiment: HEK scratch migration assay; format: cell-based, human; conditions: mitomycin C, with or without glucose
# Method: as §1
# [5] = system: HEKs; experiment: HEK chemotaxis, Col I-coated Boyden inserts; format: cell-based, human; conditions: supplemental Glu, 18 h, with or without insulin 5 μg/ml or IGF-1 100 ng/ml
# Method: (§2) A. HEKs were treated as described in FIG. 7 for mouse KCs and proliferation was measured. […] B. HEKs were treated and scratch assays performed as in FIG. 7. […] C. HEKs were treated with Glu and/or C9, but starved during the last 18 h. Cells were plated on the top of Col I-coated Boyden inserts in supplement-free medium, while the lower level was filled with the same medium with and without insulin (5 μg/ml) or IGF-1 (100 ng/ml) (Haase et al. J Cell Sci 2003; 116:3227-38.; herein incorporated by reference in its entirety). After 18 h, HEKs on the bottom surface were stained and counted. […] D-G. After their incubation in Glu and/or C9, HEKs were plated onto Col I-coated glass dishes and, 2 h later, single cells were imaged every 2 mins over a 2 h period using a Biostation phase contrast microscope (Nikon). […] Vector maps constructed with 10 representative tracks (G) further show reversal of the impact of Glu with C9 alone (which was approximately the same as with growth factors).
# [6] = system: HEKs; experiment: HEK single live cell imaging (Biostation); format: cell-based, human; conditions: Glu-treated HEKs
# Method: as §2
# [7] = system: p-cofilin; experiment: p-cofilin immunoblotting in HEKs; format: cell-based, human; conditions: HEKs treated 72 h, immunoblot
# Method: HEKs were treated for 72 h with or without Glu, C9, Glu+C9 (A), or with sense DNA-Au NPs or the hybrid GM2/GD2S and GD3S antisense-Au NPs (B). Immunoblotting of cell lysates detected p-cofilin8 ([…]), cofilin and, as a loading control, GAPDH.
# [8] = system: IGF-1R; experiment: IGF-1R phosphorylation immunoblot in HEKs; format: cell-based, human; conditions: HEKs 72 h, with or without Glu; IGF-1 100 ng/ml or insulin 5 μg/ml
# [9] = molecular target: T1, GCS (Homo sapiens, UniProt Q16739); conditions: cited from earlier work
# T1 sequence (Q16739 1-394): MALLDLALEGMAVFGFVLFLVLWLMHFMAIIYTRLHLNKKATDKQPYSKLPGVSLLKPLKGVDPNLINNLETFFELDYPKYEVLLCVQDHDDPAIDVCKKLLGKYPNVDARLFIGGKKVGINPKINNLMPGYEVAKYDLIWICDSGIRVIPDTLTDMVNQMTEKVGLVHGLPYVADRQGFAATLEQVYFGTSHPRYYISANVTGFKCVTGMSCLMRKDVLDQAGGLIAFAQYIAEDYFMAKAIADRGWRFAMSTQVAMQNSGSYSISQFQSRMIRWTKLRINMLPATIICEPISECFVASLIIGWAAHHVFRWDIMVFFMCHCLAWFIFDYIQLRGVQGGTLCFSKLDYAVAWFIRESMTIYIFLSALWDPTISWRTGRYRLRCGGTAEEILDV
# [10] = in animals, relative to P4; cited from earlier work
# [11] = system: IR; experiment: IR phosphorylation / signaling immunoblot in HEKs; format: cell-based, human; conditions: HEKs 72-96 h; 100 pM EtDOP4, 100 pM TNF-α, GM3 50 μM; insulin 5 μg/ml
# Method: Cells were starved of growth factors overnight (with treatment continued), then treated for 5-60 mins (15 mins shown) with or without insulin 5 μg/ml. Cells lysates were immunoprecipitated with anti-IR polyclonal antibody and blotted with monoclonal anti-IR, PY-20, or as a loading control, actin. Membrane lysates were immunoprecipitated with IR and immunoblotted with anti-IR (top), PY-20 (second row), anti-IRS-1 (3rd row in B), or to control for loading, actin (bottom). […] Expression of IR was not affected.
# [12] = system: globotriaosylceramide; conditions: patients with Fabry disease; cited from earlier work
# [13] = system: α5 integrin; conditions: on fibronectin (FN); cited from earlier work
# [14] = phase II trials for Gaucher disease; cited from earlier work
# [15] = system: mouse KCs; experiment: Mouse KC in vitro wound (scratch) migration assay; format: cell-based; conditions: WT primary mouse KCs
# Method: (§3) FIGS. 13A-C show ganglioside depletion reverses glucose-induced inhibition of proliferation and in vitro wound healing. (A) Mouse KCs were cultured in standard medium (8 mM glucose) or medium supplemented with 12 mM glucose treated for 72 h, and then plated at confluence onto collagen I-coated 24-well plates in the presence of mitomycin C to prevent proliferation. Two hours after plating, a scratch was made and migration was monitored photographically during the subsequent 60 h in the continued presence or absence of glucose. (B) Quantification of wound healing shown in (A) by computerized measurements of the unfilled gap. (C) Proliferation of mouse KCs was measured by WST assay in standard or glucose-supplemented medium. In vitro proliferation, migration and motility assays. […] For proliferation assays, KCs were plated onto 96-well (2×10^3 cell/well) or 12-well (2×10^4 cell/well) plates and cell proliferation was assessed daily for 5 d by either WST assay (96-well plate) per manufacturer's instruction (Clontech, Calif.) and manual counting using a hemacytometer (12-well plate). Cell migration was assessed by in vitro wound (scratch) assays as previously described (47). […] Cell migration in complete CnT-07 medium in the presence of 4 μg/mL mitomycin was recorded photographically every 3-4 h for 60 h under an inverted phase-contrast microscope (Nikon). […]
# [16] = system: mouse KCs; experiment: Mouse KC proliferation (WST assay); format: cell-based; conditions: WT primary mouse KCs
# Method: as §3
molecule,measurement,setting,value
CCCCCCCCC(=O)N[C@H](CN1CCCC1)[C@H](O)c1ccc2c(c1)OCCO2.O=C(O)C(O)C(O)C(=O)O [C9],reduction in GM3 expression,"[1]; 1 μM C9 for 72 h, flow cytometry",93%
same,GM3 expression (in words),[1],prevents GM3 expression; also recorded: deplete GM3
same,ceramide level (in words),[2],does not increase ceramides; also recorded: neither C9 nor EtDOP4 increase ceramide
same,proliferation (in words),[3],greatest in cells treated with Glu and C9; also recorded: increases
same,migration (in words),[4],even faster in the HEKs treated with C9+Glu than in vehicle-treated HEKs; also recorded: increases
same,chemotaxis (in words),[5],increased chemotaxis of HEKs exposed to supplemental Glu
same,net displacement (reflecting persistence),[6]; at 2 h,significantly increased
same,total distance (reflecting velocity),[6]; at 2 h,significantly increased
same,cell polarity (in words),[6]; imaged over 2 h,increased cell polarity
same,phosphorylation of cofilin (in words),[7],decrease p-cofilin
same,IGF-1R phosphorylation (in words),[8],"phosphorylates IGF-1R, including in the presence of supplemental glucose; also recorded: reverses the glucose-induced suppression of IGF-1R activation"
same,potency at inhibiting GCS relative to P4,[9],somewhat less potent
same,metabolic and tolerability profile,[10],better metabolic and tolerability profile
"CCCCCCCCCCCCCCCC(=O)N[C@H](CN1CCCC1)[C@H](O)c1ccc2c(c1)OCCO2 [EtDOP4, D-threo-EtDO-P4]",GM3 expression (in words),[1],deplete GM3
same,ceramide level (in words),[2],neither C9 nor EtDOP4 increase ceramide
same,proliferation (in words),[3],increases
same,migration (in words),[4],increases
same,IR signaling / IR phosphorylation (in words),[11],rescues the suppression of TNF-α of IR phosphorylation
same,accumulation of globotriaosylceramide,[12],decrease the accumulation of globotriaosylceramide
GT1b,KC migration,[13],inhibit KC migration specifically on fibronectin (FN)
IGF-1: insulin-like growth factor 1,phosphorylation of cofilin (in words),[7],decrease p-cofilin
TNF-α,increase in membrane-based GM3 expression,"[1]; 0-100 pM TNF-α for 96 h, flow cytometry",10 fold
same,IR signaling / IR phosphorylation (in words),[11],suppresses IR signaling
eliglustat tartrate,toxicity,[14],showed little toxicity
"insulin: growth factor, 5 μg/ml",phosphorylation of cofilin (in words),[7],decrease p-cofilin
lactosylceramide [LacCer],migration (in words),[15],slightly decreased
same,proliferation (in words),[16],slightly decreased
